Test results taken from patent US12091425B2 (AMGEN INC., priority 2016, dated 2024).

Tests used:
[1] = test system: OPM-2 human multiple myeloma cell line; experiment: Cell Viability Assay (OPM-2 10 FBS); format: cell-based; conditions: OPM-2 cells, 16 h, CellTiter-Glo
In short: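 OPM-2 myeloma cells, 3000/well in medium with 10% FBS, exposed to serially diluted compounds for 16 h at 37° C./5% CO2. Viability read by CellTiter-Glo luminescence; IC50 from 4-parameter logistic fit.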

[2] = biological target: T1, Mcl-1/Bim interaction, recombinant human Mcl-1 (171-327) (Homo sapiens, UniProt Q07820); experiment: Cell free Mcl-1: Bim Affinity Assay (Mcl-1 HTRF); format: binding; conditions: cell free Mcl-1:Bim TR-FRET, recombinant human Mcl-1 (171-327)
T1 construct: made in house
In short: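 TR-FRET competition assay with biotinylated human Bim peptide (residues 51-76); reaction plates incubated overnight before reading. IC50 values came from duplicate data fitted to a four-parameter sigmoidal competition curve.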

T1 sequence (Q07820 171-327): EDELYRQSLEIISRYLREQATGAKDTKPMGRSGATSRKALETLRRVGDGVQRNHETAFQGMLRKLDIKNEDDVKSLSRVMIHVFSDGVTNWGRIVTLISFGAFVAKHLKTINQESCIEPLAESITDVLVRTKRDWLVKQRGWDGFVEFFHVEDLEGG

IC50 [2] | IC50 ([1]; Homo sapiens, OPM-2, 16 h) | SMILES | IC50 [1]
1.51 nM | 652 nM | COC(=O)CN[C@H]1/C=C/CC[C@@H](C)S(=O)(=O)NC(=O)c2ccc3c(c2)N(C[C@@H]2CC[C@H]21)C[C@@]1(CCCc2cc(Cl)ccc21)CO3 [Example 599, methyl N-((1S,3′R,6′R,7′S,8′E,12′R)-6-chloro-12′-methyl-13′,13′-dioxido-15′-oxo-3,4-dihydro-2H-spiro[naphthalene-1,22′-[20]oxa[13]thia[1,14]diazatetracyclo[14.7.2.0^3,6.0^19,24]pentacosa [8,16,18,24]tetraen]-7′-yl)glycinate-trifluoroacetic Acid] | 
0.647 nM | 104 nM | COC(=O)CN(CC(=O)OC)[C@H]1/C=C/CC[C@@H](C)S(=O)(=O)NC(=O)c2ccc3c(c2)N(C[C@@H]2CC[C@H]21)C[C@@]1(CCCc2cc(Cl)ccc21)CO3 [Example 600, dimethyl 2,2′-(((1S,3′R,6′R,7′S,8′E,12′R)-6-chloro-12′-methyl-13′,13′-dioxido-15′-oxo-3,4-dihydro-2H-spiro[naphthalene-1,22′-[20]oxa[13]thia[1,14]diazatetracyclo[14.7.2.0^3,6.0^19,24]pentacosa [8,16,18,24]tetraen]-7′-yl)imino)diacetate-trifluoroacetic Acid] | 
1.74 nM | 727 nM | Cc1nc(CN(Cc2noc(C)n2)[C@H]2/C=C/CC[C@@H](C)S(=O)(=O)NC(=O)c3ccc4c(c3)N(C[C@@H]3CC[C@H]32)C[C@@]2(CCCc3cc(Cl)ccc32)CO4)no1 [Example 602, (1S,3′R,6′R,7′S,8′E,12′R)-7′-(bis((5-methyl-1,2,4-oxadiazol-3-yl)methyl)amino)-6-chloro-12′-methyl-3,4-dihydro-2H,15′H-spiro[naphthalene-1,22′-[20]oxa[13]thia[1,14]diazatetracyclo[14.7.2.0^3,6.0^19,24]pentacosa [8,16,18,24]tetraen]-15′-one 13′,13′-dioxide] | 
0.667 nM | 438 nM | Cc1nc(CO[C@H]2/C=C/CC[C@@H](C)S(=O)(=O)NC(=O)c3ccc4c(c3)N(C[C@@H]3CC[C@H]32)C[C@@]2(CCCc3cc(Cl)ccc32)CO4)no1 [Example 603, (1S,3′R,6′R,7′S,8′E,12′R)-6-chloro-12′-methyl-7′-((5-methyl-1,2,4-oxadiazol-3-yl)methoxy)-3,4-dihydro-2H,15′H-spiro[naphthalene-1,22′-[20]oxa[13]thia[1,14]diazatetracyclo[14.7.2.0^3,6.0^19,24]pentacosa [8,16,18,24]tetraen]-15′-one 13′,13′-dioxide] | 
0.923 nM | 1140 nM | CC[C@@H]1CC/C=C/[C@H](OC(N)=O)[C@@H]2CC[C@H]2CN2C[C@@]3(CCCc4cc(Cl)ccc43)COc3ccc(cc32)C(=O)NS1(=O)=O [Example 610, (1S,3′R,6′R,7′S,8′E,12′R)-6-chloro-12′-ethyl-13′,13′-dioxido-15′-oxo-3,4-dihydro-2H-spiro[naphthalene-1,22′-[20]oxa[13]thia[1,14]diazatetracyclo[14.7.2.0^3,6.0^19,24]pentacosa [8,16,18,24]tetraen]-7′-yl carbamate] | 

SMILES | IC50 [2] | IC50 ([1]; Homo sapiens, OPM-2, 16 h) | IC50 [1]
CC(C)OC(=O)C[C@@H]1[C@@H](C)C/C=C\[C@H](O)[C@@H]2CC[C@H]2CN2C[C@@]3(CCCc4cc(Cl)ccc43)COc3ccc(cc32)C(=O)NS1(=O)=O [Example 570] | 8.44 nM |  | 3020 nM
COC(=O)CC[C@@H]1CC/C=C/[C@H](O)[C@@H]2CC[C@H]2CN2C[C@@]3(CCCc4cc(Cl)ccc43)COc3ccc(cc32)C(=O)NS1(=O)=O [Example 616] | 0.178 nM |  | 482 nM
COC(=O)C[C@H]1CC/C=C/[C@H](O)[C@@H]2CC[C@H]2CN2C[C@@]3(CCCc4cc(Cl)ccc43)COc3ccc(cc32)C(=O)NS1(=O)=O [Example 620] | 0.71 nM |  | 4080 nM
CCOC(=O)CO[C@H]1/C=C/CC[C@@H](CC(=O)OC)S(=O)(=O)NC(=O)c2ccc3c(c2)N(C[C@@H]2CC[C@H]21)C[C@@]1(CCCc2cc(Cl)ccc21)CO3 [Example 623] | 0.642 nM |  | 483 nM
